Test results taken from ChEMBL document CHEMBL5252583, “Cancer cell growth suppressibility of ω-3 fatty acid whose carboxy group converted to ester group” (Bioorg Med Chem Lett, 2023).

Experiments:
MIA PaCa-2 = test: Antiproliferative activity against human MIA PaCa-2 cells assessed as cell growth inhibition at 500 uM measured after 24 hrs by alamar blue assay relative to control; type: functional
HCT-116 = test: Antiproliferative activity against human HCT-116 cells assessed as cell growth inhibition at 500 uM measured after 24 hrs by alamar blue assay relative to control; type: functional
MCF7 = test: Antiproliferative activity against human MCF7 cells assessed as cell growth inhibition at 500 uM measured after 24 hrs by alamar blue assay relative to control; type: functional
[1] = Drug uptake in human MIA PaCa-2 cells assessed as increase in incorporation of compound into lipid droplets by measuring absorbance at 50 uM incubated for 24 hrs by Oil Red O staining based fluorescence microscopic analysis (reference value: 2.35 +/- 0.11 10^-2No_unit); type: ADME, cell-based; details: mia paca-2, 24 h

| Activity [1] | Structure (SMILES) | inhibition at 500 µM (MIA PaCa-2) | inhibition at 500 µM (HCT-116) | inhibition at 500 µM (MCF7) |
| --- | --- | --- | --- | --- |
| 4.12 10^-2No_unit | CC/C=C\C/C=C\C/C=C\CCCCCCCC(=O)Oc1ccccc1 | 23% | 36% | 48% |
| 3.94 10^-2No_unit | CC/C=C\C/C=C\C/C=C\CCCCCCCC(=O)Oc1ccc(OC)cc1 | 26% | 40% | 49% |
| 4.07 10^-2No_unit | CC/C=C\C/C=C\C/C=C\CCCCCCCC(=O)Oc1ccc(C(F)(F)F)cc1 | 25% | 37% | 47% |
| 4.19 10^-2No_unit | CC/C=C\C/C=C\C/C=C\CCCCCCCC(=O)O [LINOLENIC ACID] | 25% | 36% | 50% |
